Measured values taken from PubChem BioAssay AID1963978 (Molecular Pharmacology Branch, DTP, NCI, 2024).
pIC50: −log10 of the molar value. Values joined by “and” are separate entries in the source; they are usually repeats but may differ in a detail not shown here. Equal values may be shown once.

Test system: 616215-338-R-J1-PDC spheroids with HUVEC/MSC, viability
Assay: Anticancer human tumor 616215-338-R-J1-PDC patient-derived colon adenocarcinoma cell line growth inhibition [PI3K]
Settings: for viability, T/C: stronger effect = lower value; active = viability on the fitted dose curve at most 10% of control; inactive = the rest
Excerpt: Combinatorial screen of targeted agents with the PI3K inhibitors inavolisib, alpelisib, duvelisib, and copanlisib in multi-cell type tumor spheroids
A high-throughput screen of multi-cell type tumor spheroids was designed to identify active combinations of targeted small molecules and PI3K pathway inhibitors. Complex spheroids include a stromal component modeled by human endothelial cells (HUVEC) and fibroblasts modeled by human mesenchymal stem cells (MSCs). The concentration ranges selected for each drug and investigational agent were based upon clinically achievable concentrations if the clinical Cmax of the agent was known.
Compounds. The drugs and investigational agents: inavolisib (NSC800729), alpelisib (NSC765974), duvelisib (NSC772469), copanlisib (NSC816437), ipatasertib (NSC767898), afuresertib (NSC778305), talazoparib (NSC767125), sapanisertib (NSC764658), selumetinib (NSC741078), tovorafenib (DAY101, NSC766906), vemurafenib (NSC761431), ravoxertinib (NSC781343), sotorasib (NSC818433), MRTX1133 (NSC 836407), abemaciclib (NSC 768073), palbociclib (NSC758247), venetoclax (NSC 766270), SY5609 (NSC837396), enzalutamide (NSC755605), and darolutamide (NSC825331), were obtained from the National Cancer Institute (NCI) Developmental Therapeutics Program Chemical Repository. The FDA-approved anticancer drug set is available from the NCI Developmental Therapeutics Program. […] The stock solutions were prepared in dimethyl sulfoxide (DMSO, Sigma-Aldrich, St. Louis, MO, cat. D2650) at 800-fold the tested concentration and stored at -70 degrees C prior to their use. All drugs and investigational agents were tested over a range starting from a high concentration at or near the clinical Cmax and decreasing in half-log increments. If the clinical Cmax for an agent had not been determined, the highest concentration tested was 10 microM.
Cell Culture. All cells were maintained in an incubator at 37 degrees C and 5% CO2 with 95% humidity. The PDC lines were cultured according to standard operating procedures established by the NCI PDMR (https://pdmr.cancer.gov/sops/default.htm). All PDCs were thawed and cultured in Matrigel-coated flasks prepared with a working solution of 1X Ham's F-12 nutrient mix, without supplementation (Invitrogen, Waltham, MA, cat. 11765054), 100 U/mL penicillin-streptomycin (Invitrogen, cat. 15140122), and 2.5% Matrigel (Corning Inc., Corning, NY, cat. 354248) for the first three passages. The 354836-022-R-J1-PDC, 475296-252-R-J1-PDC, and 997726-040-R-J2-PDC lines were cultured in 6A media, which includes advanced DMEM/F-12 (Thermo Fisher Scientific, cat. 12634028), 10 mM HEPES (Thermo Fisher Scientific, cat. 15630080), 1X GlutaMAX supplement (Thermo Fisher Scientific, cat. 35050061), 0.1 mg/mL primocin (InvivoGen, San Diego, CA, cat. ant-pm-2), 10% defined fetal bovine serum, heat inactivated (HyClone Laboratories Inc., Logan, UT, cat. SH30070.03HI), 50% L-WRN conditioned media (ATCC, cat. CRL-3276), 1.25 mM N-Acetyl-L-cysteine (Sigma-Aldrich, cat. A9165), 10 mM nicotinamide (Sigma-Aldrich, cat. N0636), 1X B-27 supplement (Thermo Fisher Scientific, cat. 17504044), 1X N-2 supplement (Thermo Fisher Scientific, cat. 17502048), and 10 microM Y-27632 dihydrochloride (Tocris Bioscience, Bristol, United Kingdom, cat. 1254). The 624824-186-R-J2-PDC line was cultured in 6C/Colon 1B media, which includes all 6A media components plus 50 ng/mL human EGF recombinant protein (Thermo Fisher Scientific, cat. PHG0311). […]

[1] = curve of first compound, second compound 0.00316 µM
[2] = curve of first compound, second compound 0.01 µM
[3] = curve of first compound, second compound 0.0316 µM
[4] = curve of first compound, second compound 0.1 µM
[5] = curve of first compound, second compound 0.316 µM
[6] = curve of first compound, second compound 1 µM
[7] = second compound 0.00316 µM, first compound 0.00316 µM
[8] = second compound 0.00316 µM, first compound 0.01 µM
[9] = second compound 0.00316 µM, first compound 0.0316 µM
[10] = second compound 0.00316 µM, first compound 0.1 µM
[11] = second compound 0.01 µM, first compound 0.00316 µM
[12] = second compound 0.01 µM, first compound 0.01 µM
[13] = second compound 0.01 µM, first compound 0.0316 µM
[14] = second compound 0.01 µM, first compound 0.1 µM
[15] = second compound 0.0316 µM, first compound 0.00316 µM
[16] = second compound 0.0316 µM, first compound 0.01 µM
[17] = second compound 0.0316 µM, first compound 0.0316 µM
[18] = second compound 0.0316 µM, first compound 0.1 µM
[19] = second compound 0.1 µM, first compound 0.00316 µM
[20] = second compound 0.1 µM, first compound 0.01 µM
[21] = second compound 0.1 µM, first compound 0.0316 µM
[22] = second compound 0.1 µM, first compound 0.1 µM
[23] = second compound 0.316 µM, first compound 0.00316 µM
[24] = second compound 0.316 µM, first compound 0.01 µM
[25] = second compound 0.316 µM, first compound 0.0316 µM
[26] = second compound 0.316 µM, first compound 0.1 µM
[27] = second compound 1 µM, first compound 0.00316 µM
[28] = second compound 1 µM, first compound 0.01 µM
[29] = second compound 1 µM, first compound 0.0316 µM
[30] = second compound 1 µM, first compound 0.1 µM
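Also: spheroids exposed to agents for seven days before the viability read.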

CCN1CCN(Cc2ccc(Nc3ncc(F)c(-c4cc(F)c5nc(C)n(C(C)C)c5c4)n3)nc2)CC1 + COc1c(OCCCN2CCOCC2)ccc2c3n(c(=NC(=O)c4cnc(N)nc4)nc12)CCN3
< 6.00: pIC50 [1] | pIC50 [2] | pIC50 [3]
> 8.50: pIC50 [5] | pIC50 [6]
inactive: viability, T/C [7] 80.7% | viability, T/C [8] 104% | viability, T/C [9] 100% | viability, T/C [10] 97.3% | viability, T/C (second compound 0.00316 µM, first compound 0.316 µM) 128% | viability, T/C (second compound 0.00316 µM, first compound 1 µM) 90.8% | viability, T/C [11] 89.5% | viability, T/C [12] 105% | viability, T/C [13] 104% | viability, T/C [14] 118% | viability, T/C (second compound 0.01 µM, first compound 0.316 µM) 138% | viability, T/C (second compound 0.01 µM, first compound 1 µM) 87.6% | viability, T/C [15] 108% | viability, T/C [16] 109% | viability, T/C [17] 103% | viability, T/C [18] 106% | viability, T/C (second compound 0.0316 µM, first compound 0.316 µM) 112% | viability, T/C (second compound 0.0316 µM, first compound 1 µM) 55.9% | viability, T/C [19] 87.8% | viability, T/C [20] 80.3% | viability, T/C [21] 64.9% | viability, T/C [22] 54.9% | viability, T/C (second compound 0.1 µM, first compound 0.316 µM) 47.1% | viability, T/C (second compound 0.1 µM, first compound 1 µM) 34.7% | viability, T/C [23] 36.1% | viability, T/C [24] 33.8% | viability, T/C [25] 33% | viability, T/C [26] 40.7% | viability, T/C (second compound 0.316 µM, first compound 0.316 µM) 33.4% | viability, T/C (second compound 0.316 µM, first compound 1 µM) 32% | viability, T/C [27] 22.3% | viability, T/C [28] 23.4% | viability, T/C [29] 20.6% | viability, T/C [30] 24.6% | viability, T/C (second compound 1 µM, first compound 0.316 µM) 27.2% | viability, T/C (second compound 1 µM, first compound 1 µM) 31.1%
6.73: pIC50 [4]

CC(=O)c1c(C)c2cnc(Nc3ccc(N4CCNCC4)cn3)nc2n(C2CCCC2)c1=O + COc1c(OCCCN2CCOCC2)ccc2c3n(c(=NC(=O)c4cnc(N)nc4)nc12)CCN3
> 9.50: pIC50 [5] | pIC50 [6]
< 7.00: pIC50 [1] | pIC50 [2] | pIC50 [3] | pIC50 [4]
inactive: viability, T/C (second compound 0.00316 µM, first compound 0.000316 µM) 91% | viability, T/C (second compound 0.00316 µM, first compound 0.001 µM) 98.3% | viability, T/C [7] 103% | viability, T/C [8] 101% | viability, T/C [9] 88.8% | viability, T/C [10] 94.7% | viability, T/C (second compound 0.01 µM, first compound 0.000316 µM) 93.4% | viability, T/C (second compound 0.01 µM, first compound 0.001 µM) 95.9% | viability, T/C [11] 90.7% | viability, T/C [12] 99.3% | viability, T/C [13] 101% | viability, T/C [14] 116% | viability, T/C (second compound 0.0316 µM, first compound 0.000316 µM) 103% | viability, T/C (second compound 0.0316 µM, first compound 0.001 µM) 100% | viability, T/C [15] 99.8% | viability, T/C [16] 99.4% | viability, T/C [17] 97.9% | viability, T/C [18] 90.7% | viability, T/C (second compound 0.1 µM, first compound 0.000316 µM) 93.1% | viability, T/C (second compound 0.1 µM, first compound 0.001 µM) 92.7% | viability, T/C [19] 96.1% | viability, T/C [20] 85.4% | viability, T/C [21] 79.4% | viability, T/C [22] 58.7% | viability, T/C (second compound 0.316 µM, first compound 0.000316 µM) 48.4% | viability, T/C (second compound 0.316 µM, first compound 0.001 µM) 36.3% | viability, T/C [23] 40.9% | viability, T/C [24] 31.2% | viability, T/C [25] 37.7% | viability, T/C [26] 23.4% | viability, T/C (second compound 1 µM, first compound 0.000316 µM) 28.6% | viability, T/C (second compound 1 µM, first compound 0.001 µM) 20.7% | viability, T/C [27] 18.9% | viability, T/C [28] 16.8% | viability, T/C [29] 18.8% | viability, T/C [30] 18.4%

CC1(C)CCC(Nc2ncc(C(F)(F)F)c(-c3c[nH]c4c(P(C)(C)=O)c(C#N)ccc34)n2)CN1 (centres undefined)
active: viability, T/C (compound 10 µM) 0.49% [middle of 4 runs]
inactive: viability, T/C (compound 0.1 µM) 54.8% [middle of 4 runs] | viability, T/C (compound 1 µM) 60.8% [middle of 4 runs] | viability, T/C (compound 3.16 µM) 55.7% [middle of 4 runs]

CCCS(=O)(=O)Nc1ccc(F)c(C(=O)c2c[nH]c3ncc(-c4ccc(Cl)cc4)cc23)c1F
active: viability, T/C (compound 10 µM) 2.66% [middle of 4 runs]
5.36 and 5.41 and 5.29: pIC50 (curve of compound)
inactive: viability, T/C (compound 0.0316 µM) 95.5% [middle of 4 runs] | viability, T/C (compound 0.1 µM) 93.5% [middle of 4 runs] | viability, T/C (compound 0.316 µM) 97.2% [middle of 4 runs] | viability, T/C (compound 1 µM) 92.5% [middle of 4 runs]
